Tests used:
Rattus norvegicus [1] = species on record: Rattus norvegicus; assay: […] and the effective dose required for the elicitation of the complete psychotomimetic spectrum was determined; f =Not effective at 50 mg; assay type: functional, organism-based
Rattus norvegicus [2] = species on record: Rattus norvegicus; assay: Duration of time in hours, after ingestion at which central effects begin to decline was determined.; assay type: functional
[3] = […] and the effective dose required for the elicitation of the complete psychotomimetic spectrum was determined.; assay type: functional
Rattus norvegicus [4] = species on record: Rattus norvegicus; assay: Onset time in minutes, between ingestion and the first noticeable symptoms was determined; assay type: functional

Row | SMILES | Effective dose (Rattus norvegicus [1]) | Duration (Rattus norvegicus [2]) | Effective dose [3] | Onset time (Rattus norvegicus [4])
1 | COc1cc2[nH]cc(CCN(C)C(C)C)c2cc1OC | Not effective at 50mg | – | – | –
2 | COc1cccc2c(CCN(C)C(C)C)c[nH]c12 | Not effective at 50mg | – | – | –
3 | COc1cccc2[nH]cc(CCN(C)C(C)C)c12 | – | 2 h | 30 mg/kg | 45 min
4 | CC(C)N(C)CCc1c[nH]c2cccc(O)c12 | – | 6 h | 10 mg/kg | 20 min
5 | CC(C)N(C)CCc1c[nH]c2cc3ooc3cc12 | Not effective at 50mg | – | – | –
6 | COc1ccc2c(CCN(C)C(C)C)c[nH]c2c1 | Not effective at 50mg | – | – | –
7 | CC(C)N(C)CCc1c[nH]c2ccccc12 | – | 3 h | 25 mg/kg | 40 min
8 | COc1ccc2[nH]cc(CCN(C)C(C)C)c2c1 | – | 3 h | 5 mg/kg | 9 min

— ChEMBL document CHEMBL1123092, “Psychotomimetic N-methyl-N-isopropyltryptamines. Effects of variation of aromatic oxygen substituents” (1985)
